Assay results as given in US20100204161A1, “Substances and Pharmaceutical Compositions for the Inhibition of Glyoxalases and Their Use Against Bacteria” (BIOMAC PRIVATINSTITUT FUR MEDIZINISHE UND ZAHMEDIZ …, priority 2005, published 2010).
“Also recorded” adds a separate entry of the source.

Key:
[1] = molecular target: T1, yeast glyoxalase I (Saccharomyces cerevisiae, UniProt P50107); test: Enzymatic activity of yeast glyoxalase I (formation of S-D-lactoyl-glutathione, 240 nm); type: biochemical; conditions: increasing concentrations (0-30 mM in Example 5); FIG. 1-3; listed as EP
T1 construct: purchased Sigma G-4252
T1 sequence (P50107 1-326): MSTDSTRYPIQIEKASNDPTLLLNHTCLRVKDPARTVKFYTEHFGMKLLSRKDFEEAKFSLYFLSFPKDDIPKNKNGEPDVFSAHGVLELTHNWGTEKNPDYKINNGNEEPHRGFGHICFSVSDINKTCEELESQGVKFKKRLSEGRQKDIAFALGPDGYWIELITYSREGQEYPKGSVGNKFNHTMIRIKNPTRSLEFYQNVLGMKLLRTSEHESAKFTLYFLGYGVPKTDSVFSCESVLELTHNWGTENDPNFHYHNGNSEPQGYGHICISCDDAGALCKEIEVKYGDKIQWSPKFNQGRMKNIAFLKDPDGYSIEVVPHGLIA
Experimental: Measuring glyoxalase I (E.C.4.4.1.5, lactoyl-glutathione lyase Sigma, G-4252) was performed according to the instructions of McLellan and Thornalley (1989). The principle is based on measuring the initial rate of formation of S-D-lactoyl-glutathione from methylglyoxal (Sigma, MO252, 40%) and reduced L-glutathione (Aldrich, G-4251, >99%). The formation of the product is observed using the extinction coefficient e=2.86 mM-1 cm-1 at 240 nm. The measurement was performed in 50 mM sodium phosphate buffer, pH 7.0. For that purpose 2 mM methylglyoxal and 2 mM reduced glutathione were incubated for 2 minutes at 30° C. for the formation of the hemithioacetal. Thereafter 20 μl of a 1 to 1000 dilution of the glyoxalase I (Sigma, G-4252) was added to 1 ml of the measuring reagent to start the reaction.
(§1) Glyoxalase activity (IU) corresponds to the amount of enzyme forming 1 μmol of S-D-lactoyl-glutathione/min.
Determination of glyoxalase I activity was performed according to the general protocol as described above. The influence of ethyl pyruvate on enzyme activity was investigated by addition of increasing concentrations of EP (Sigma; no. E4, 780-8; lot. S18972-513) to the measuring reagent.
Determination of glyoxalase I activity was performed according to the general protocol as described above. The influence of compounds of the general formula (I), (II), and (III) on the activity of the enzyme was investigated by addition of increasing concentrations of these compounds to the preparation. The IC50-values were calculated from inhibition curves of each compound.
Determination of glyoxalase I activity was performed according to the general protocol as described above. The influence of 2-oxopropanethioic acid S-ethyl ester on the activity of the enzyme was investigated by addition of increasing concentrations of SE to the preparation for the measurement.
Determination of glyoxalase I activity was performed according to the general protocol as described above. The influence of effectors on the enzymatic activity was investigated by addition of increasing concentrations (0-30 mM) of EP (Sigma; no. E4, 780-8; lot. S18972-513) (triangle), BP (prepared according to the instructions of patent JP 11080089; 98%) (circle) and BL (Fluka, 69819; lot. 443090/1 21503090) (squares) to the measuring reagent (FIG. 3).

[2] = molecular target: T2, glyoxalase I of human erythrocytes (Homo sapiens, UniProt Q04760); test: Enzymatic activity of human erythrocyte glyoxalase I (erythrocyte lysate); type: biochemical; conditions: 0-50 mM; FIG. 5
T2 construct: from tissue; host or cells: human erythrocyte lysate
T2 sequence (Q04760 2-184 limits assumed): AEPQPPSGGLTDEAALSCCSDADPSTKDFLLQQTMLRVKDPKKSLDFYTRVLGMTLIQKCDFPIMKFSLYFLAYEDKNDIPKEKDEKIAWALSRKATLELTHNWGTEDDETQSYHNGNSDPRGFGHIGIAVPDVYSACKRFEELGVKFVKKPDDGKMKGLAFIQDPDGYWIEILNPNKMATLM
Experimental: The determination of glyoxalase I was performed as described above for the yeast enzyme. After the formation of the hemithioacetal, suitable amounts (5 to 100 μl) of an erythrocyte lysate were added to 1 ml of the measuring reagent to start the reaction. The erythrocyte lysate was prepared according to the instructions of Mannervik et al. (1982).
as §1
Determination of glyoxalase I activity was performed according to the general protocol as described above. The influence of ethyl pyruvate on enzyme activity was investigated by addition of increasing concentrations of EP (Sigma; no. E4, 780-8; lot. S18972-513) (0-50 mM) to the measuring reagent.

[3] = test system: primary human skin fibroblasts; test: Vitality of primary human fibroblasts (dye exclusion count); type: cell-based; conditions: 1-50 mM, serum free medium, 24 hours; FIG. 7
Experimental: An identical number (10^4 cells per well) of primary human skin fibroblasts were inoculated in 24-well plates (Greiner, no. 662160) and were cultured in DMEM (Gibco; no. 41966-092) in the presence of 10% calf serum (Biochrom, S0113/5), 2 mM L-glutamine (Gibco; no. 25030-024), penicillin/streptomycin (100 units penicillin/ml; 100 μg streptomycin/ml, Gibco; no. 15140/122), 5 mg % ascorbic acid (Serva, no. 14030.02) at 37° C., 5% CO2 and 95% humidity. The primary human fibroblasts were prepared according to the instructions of Birkenmeier et al. (1998). After reaching 50% confluency the medium was by fresh serum free medium. Thereafter the following supplements were added to the cells: preparation 1 (equivalent volume of serum free (SF) medium, blank); preparation 2 (1 mM DEL or 1 mM LEL or 1 mM EP); preparation 3 (5 mM DEL or 5 mM LEL or 5 mM EP), preparation 4 (10 mM DEL or 10 mM LEL or 10 mM EP), preparation 5 (20 mM DEL or 20 mM LEL or 20 mM EP), preparation 6 (50 mM DEL or 50 mM LEL or 50 mM EP). The culture was continued at 37° C., 5% CO2 and 95% humidity for 24 hours. Thereafter the supernatants were removed and 100 μl of a 50% […] solution was added to the wells. After washing the cells with medium the unstained and stained cells were counted under the light optical microscope comprising a coordinate plane. Cells stained blue were assessed as avital, unstained cells as vital. The percentage of unstained cells of the total number of cells corresponds to the vitality of the cells.

## CCOC(=O)C(C)=O [Ethyl pyruvate]
[1]
  Influence on the enzymatic activity of yeast glyoxalase I: inhibits the reaction of yeast glyoxalase I in a concentration dependent manner; also recorded: inhibit the activity of glyoxalase I in a concentration dependent manner
[2]
  Inhibition of the enzymatic activity of glyoxalase I of human erythrocytes: inhibits the reaction of glyoxalase I of human erythrocytes in a concentration dependent manner
[3]
  Effect on the vitality of primary human fibroblasts: not toxic over the concentration range investigated
